Assay results taken from article PMC5090206, “Fluselenamyl: A Novel Benzoselenazole Derivative for PET Detection of Amyloid Plaques (Aβ) in Alzheimer’s Disease” (Scientific Reports, 2016).

Assays:
Aβ1–42 fibrils = target: T1, Aβ1–42 fibrils (Homo sapiens, UniProt P05067); experiment: Fluorescence binding assay of 5 with preformed Aβ1–42 fibrils; conditions: preformed Aβ1–42 aggregates in PBS, single site binding model
T1 construct: Commercially available amyloid peptide Aβ1-42; purchased
Method: For assessing the ability of 5 to bind Aβ plaques; preliminary binding assays with preformed Aβ1–42 fibrils were performed in PBS. […] Additionally, it is also noteworthy that no fluorescence was observed using Aβ aggregates alone in PBS following excitation at 392 nm (a negative control).
Scientific Reports Version of August 4, 2016
Preparation of Aβ fibrils.
Commercially available amyloid peptide Aβ1-42 (433 µg) was gently dissolved in PBS (1 mL, pH 7.4, 100 µM)5. The solution was incubated for 36-48 h at 37°C with continuous gentle shaking to avoid gel formation at the meniscus. The aggregated peptide suspension was stored at -80°C until needed (the […]
Binding of 5 with Aβ fibrils
In vitro binding assays to preformed fibrils were performed using literature procedures. […]
indicating binding to Aβ aggregates, similar to enhancement in fluorescence of thioflavin-T in PBS (a positive control; data not shown). Additionally, it is also noteworthy that no fluorescence was observed using Aβ aggregates alone in PBS upon excitation at 410 nm (a negative control). All measurements were made in triplicates; fluorescence of either 5 alone or fibrils at a given concentration was subtracted. […]
SI Figure 2. […] All measurements were made in triplicates; fluorescence of either 5 alone or fibrils at a given concentration was subtracted. […]

Aβ plaques = Aβ plaques (Homo sapiens, UniProt P05067); experiment: Real time multiphoton imaging in APP+/−/PS1+/− mice; type: in vivo; conditions: 2 mg/kg intravenous
Source text: For assessing viability of molecules as imaging probes in vivo[48], various imaging modalities, such as nuclear imaging (PET/SPECT), optical imaging, and MRI have been used to investigate simultaneously distribution kinetics and target-receptor specificity. While the resolution of PET and MRI allow in vivo imaging at relatively moderate resolution, the multiphoton microscopy enables evaluation of kinetics at a sub-micrometer resolution[49]. […] The generation of various transgenic (tg) animals overexpressing mutant human APP and/or PS1 and PS2, tg APP mice expressing ApoE isoforms including those for Tau offer attractive models for unravelling biochemical pathways prevalent in pathophysiology of AD[50]. […] Literature precedents indicate Aβ deposition by 2 months of age, with gradual quantitative increase at six months^55. […] Compared with barely detectable auto-fluorescence levels prior to imaging transgenic APP^+/−/PS1^+/− mice (Fig. 8, first panel), bright fluorescence appeared almost instantaneously following administration of 5. Fluorescence first appeared in large and small blood vessels within the brain. Within minutes (10 min), the brain parenchyma was uniformly bright in fluorescence, and Aβ deposits were labeled. […]
For imaging 5 labeled plaques, two-photon fluorescence was generated with 800 nm excitation, and fluorescent emission was detected in the range of 435-485nm. […]

Aβ plaques, sequence (P05067 672-711 limits assumed): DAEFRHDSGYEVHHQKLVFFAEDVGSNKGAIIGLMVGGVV
T1 sequence (P05067 672-713 limits assumed): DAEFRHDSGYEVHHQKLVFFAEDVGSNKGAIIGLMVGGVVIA

CN(C)c1ncc(/C=C\c2nc3cc(OCCF)ccc3[se]2)cn1 [compound 5, (Z)-5-(2-(5-(2-fluoroethoxy)benzo[d][1,3]selenazol-2-yl)vinyl)-N,N-dimethylpyrimidin-2-amine]
Kd (Aβ1–42 fibrils): 1.58 ± 0.05 nM
time at which labeling of parenchymal plaques peaked (Aβ plaques): approximately 10 min
